The values that follow come from US20240294569A1, “MODULATORS OF SORTILIN ACTIVITY” (Insusense ApS, priority 2021, published 2024).

In general, pIC50 refers to −log10 of the IC50, conventionally taken in molar units.

pIC50: −log10 of the molar value. Peptide text beside a SMILES is read from it.

For the experiment, the target named is T1, hSortilin (Homo sapiens, UniProt Q99523).
T1 sequence (Q99523 78-831): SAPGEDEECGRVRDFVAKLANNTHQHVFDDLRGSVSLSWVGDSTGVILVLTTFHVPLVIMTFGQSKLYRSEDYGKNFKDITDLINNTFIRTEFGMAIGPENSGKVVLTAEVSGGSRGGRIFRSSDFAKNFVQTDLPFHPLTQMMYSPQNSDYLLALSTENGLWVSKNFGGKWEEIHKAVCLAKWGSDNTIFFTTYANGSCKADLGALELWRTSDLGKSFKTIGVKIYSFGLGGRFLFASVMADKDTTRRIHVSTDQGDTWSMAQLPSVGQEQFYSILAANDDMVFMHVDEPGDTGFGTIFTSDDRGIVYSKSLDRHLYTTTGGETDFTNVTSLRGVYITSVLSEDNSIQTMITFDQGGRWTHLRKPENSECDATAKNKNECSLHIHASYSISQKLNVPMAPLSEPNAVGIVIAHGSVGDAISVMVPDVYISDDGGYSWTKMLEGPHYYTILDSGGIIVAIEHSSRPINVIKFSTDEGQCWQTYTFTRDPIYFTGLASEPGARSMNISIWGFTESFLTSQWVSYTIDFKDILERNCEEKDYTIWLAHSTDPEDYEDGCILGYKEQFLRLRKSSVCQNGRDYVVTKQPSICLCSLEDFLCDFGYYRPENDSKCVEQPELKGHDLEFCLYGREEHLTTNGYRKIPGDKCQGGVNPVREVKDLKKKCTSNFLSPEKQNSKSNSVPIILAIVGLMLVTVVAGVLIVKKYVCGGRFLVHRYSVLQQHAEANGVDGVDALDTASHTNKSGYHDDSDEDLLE
In words: Neurotensin scintillation proximity assay (displacement of [3H]-neurotensin binding). As to conditions: displacement of 5 nM [3H]-neurotensin from 150 nM 6his-Sortilin; average of at least 2 determinations; read-out: IC50 [3H]Neurotensin SPA. How it is done: The data of exemplified compounds of the invention tested in a Neurotensin (NTS) scintillation proximity assay (SPA). NTS, which is a 13 amino acid neuropeptide, is a sortilin ligand. The IC50 is a measure of the amount of the compound required to inhibit the binding of NTS to sortilin by 50%.
Compound affinity was determined by measuring the displacement of [^3H]-neurotensin binding to hSortilin in SPA format. Total volume of 40 μl in 50 mM HEPES pH 7.4 assay buffer containing 100 mM NaCl, 2.0 mM CaCl2, 0.1% BSA and 0.1% Tween-20. Compound pre-incubation for 30 minutes at room temperature with 150 nM of 6his-Sortilin before 5 nM [3H]-Neurotensin and Ni chelate imaging beads (Perkin Elmer) were added, after 6 hours the plate was read on a ViewLux with 360 s exposure time. Dose-response evaluation of compounds was performed with 8 concentrations of drugs (covering 3 decades). IC50 values were calculated by nonlinear regression using the sigmoid concentration-response (variable slope) using CDD Vault software. All values reported are average of at least 2 determinations.
On the technique in general: In a scintillation proximity assay essentially only radioactivity close to the scintillant gives light.
Turning to `CC[C@H](C)[C@H](NC(=O)[C@H](Cc1ccc(O)cc1)NC(=O)[C@@H]1CCNC1)C(=O)N[C@@H](CCC(C)(C)C)C(=O)O` [Example 21, (S)-2-((2S,3S)-2-((S)-3-(4-Hydroxyphenyl)-2-((R)-pyrrolidine-3-carboxamido)propan amido)-3-methylpentanamido)-5,5-dimethylhexanoic acid], the pIC50 is 6.74.
To `CC(C)(C)CC[C@H](NC(=O)[C@H](Cc1ccsc1)NC(=O)[C@H](Cc1ccc(O)cc1)NC(=O)[C@@H]1CCCN1)C(=O)O` [Example 9, (S)-2-((S)-2-((S)-3-(4-Hydroxyphenyl)-2-((S)-pyrrolidine-2-carboxamido)propan amido)-3-(thiophen-3-yl)propanamido)-5,5-dimethylhexanoic acid] (HELM PEPTIDE1{P.Y.[O=C([C@H](Cc1ccsc1)N[*:1])[*:2]].[CC(C)(C)CC[C@H](N[*:1])C(=O)O]}$$$$V2.0) belongs 6.85.
The value for `CC[C@H](C)[C@H](NC(=O)[C@H](Cc1ccc(O)cc1)NC(=O)[C@@H]1CNCCO1)C(=O)N[C@@H](CCC(C)(C)C)C(=O)O` [Example 22, (S)-2-((2S,3S)-2-((S)-3-(4-Hydroxyphenyl)-2-((S)-morpholine-2-carboxamido)propan amido)-3-methylpentanamido)-5,5-dimethylhexanoic acid] was 7.15.
For `CC(C)(C)CC[C@H](NC(=O)[C@H](Cc1cscn1)NC(=O)[C@H](CC(N)=O)NC(=O)[C@@H]1CCCN1)C(=O)O` [Example 10, (S)-2-((S)-2-((S)-4-Amino-4-oxo-2-((S)-pyrrolidine-2-carboxamido)butan-amido)-3-(thiazol-4-yl)propanamido)-5,5-dimethylhexanoic acid] (HELM PEPTIDE1{P.N.[O=C([C@H](Cc1cscn1)N[*:1])[*:2]].[CC(C)(C)CC[C@H](N[*:1])C(=O)O]}$$$$V2.0), the negative-log IC50 (pIC50) was 7.05.
Regarding `CC[C@H](C)[C@H](NC(=O)[C@H](Cc1ccc(O)cc1)NC(=O)[C@H]1CN(C(C)=O)CCO1)C(=O)N[C@@H](CCC(F)(F)F)C(=O)O` [Example 4, (S)-2-((2S,3S)-2-((S)-2-((R)-4-Acetylmorpholine-2-carboxamido)-3-(4-hydroxyphenyl)propanamido)-3-methylpentanamido)-5,5,5-trifluoropentanoic acid], the pIC50 was 5.77.
To `CC(C)(C)CC[C@H](NC(=O)[C@H](CN1CCOCC1)NC(=O)[C@H](Cc1ccc(O)cc1)NC(=O)[C@@H]1CCCN1)C(=O)O` [Example 13, (S)-2-((S)-2-((S)-3-(4-Hydroxyphenyl)-2-((S)-pyrrolidine-2-carboxamido)propan amido)-3-morpholinopropan-amido)-5,5-dimethylhexanoic acid] (HELM PEPTIDE1{P.Y.[O=C([C@H](CN1CCOCC1)N[*:1])[*:2]].[CC(C)(C)CC[C@H](N[*:1])C(=O)O]}$$$$V2.0) belongs 6.80; to `CC(C)(C)CC[C@H](NC(=O)[C@H](Cc1ccccn1)NC(=O)[C@H](Cc1ccc(O)cc1)NC(=O)[C@@H]1CCCN1)C(=O)O` [Example 5, (S)-2-((S)-2-((S)-3-(4-Hydroxyphenyl)-2-((S)-pyrrolidine-2-carboxamido)propanamido)-3-(pyridin-2-yl)propanamido)-5,5-dimethylhexanoic acid] (HELM PEPTIDE1{P.Y.[O=C([C@H](Cc1ccccn1)N[*:1])[*:2]].[CC(C)(C)CC[C@H](N[*:1])C(=O)O]}$$$$V2.0), 6.57; to `CC(C)(C)CC[C@H](NC(=O)[C@H](Cc1ccncc1)NC(=O)[C@H](Cc1ccc(O)cc1)NC(=O)[C@@H]1CCCN1)C(=O)O` [Example 8, (S)-2-((S)-2-((S)-3-(4-Hydroxyphenyl)-2-((S)-pyrrolidine-2-carboxamido)propan amido)-3-(pyridin-4-yl)propanamido)-5,5-dimethylhexanoic acid] (HELM PEPTIDE1{P.Y.[O=C([C@H](Cc1ccncc1)N[*:1])[*:2]].[CC(C)(C)CC[C@H](N[*:1])C(=O)O]}$$$$V2.0), 6.70.
To `CC[C@H](C)[C@H](NC(=O)[C@H](Cc1ccc(O)cc1)NC(=O)[C@@H]1CNCCN1)C(=O)N[C@@H](CCC(C)(C)C)C(=O)O` [Example 19, (S)-2-((2S,3S)-2-((S)-3-(4-Hydroxyphenyl)-2-((S)-piperazine-2-carboxamido)propan amido)-3-methylpentanamido)-5,5-dimethylhexanoic acid] (HELM PEPTIDE1{[O=C([C@@H]1CNCCN1)[*:2]].Y.I.[CC(C)(C)CC[C@H](N[*:1])C(=O)O]}$$$$V2.0) belongs 7.00.
Regarding `CC(C)(C)CC[C@H](NC(=O)[C@H](Cc1cscn1)NC(=O)[C@H](CCC(N)=O)NC(=O)[C@@H]1CCCN1)C(=O)O` [Example 11, (S)-2-((S)-2-((S)-5-Amino-5-oxo-2-((S)-pyrrolidine-2-carboxamido)pentan amido)-3-(thiazol-4-yl)propanamido)-5,5-dimethylhexanoic acid] (HELM PEPTIDE1{P.Q.[O=C([C@H](Cc1cscn1)N[*:1])[*:2]].[CC(C)(C)CC[C@H](N[*:1])C(=O)O]}$$$$V2.0), the negative-log IC50 (pIC50) is 7.22.
The value for `CC[C@H](C)[C@H](NC(=O)[C@H](Cc1ccc(O)cc1)NC(=O)[C@H]1CNCCN1)C(=O)N[C@@H](CCC(C)(C)C)C(=O)O` [Example 18, (S)-2-((2S,3S)-2-((S)-3-(4-Hydroxyphenyl)-2-((R)-piperazine-2-carboxamido)propan amido)-3-methylpentanamido)-5,5-dimethylhexanoic acid] (HELM PEPTIDE1{[O=C([C@H]1CNCCN1)[*:2]].Y.I.[CC(C)(C)CC[C@H](N[*:1])C(=O)O]}$$$$V2.0) was 6.96.
To `CC[C@H](C)[C@H](NC(=O)[C@H](Cc1ccc(O)cc1)NC(=O)[C@H]1CCCO1)C(=O)N[C@@H](CCC(F)(F)F)C(=O)O` [Example 2, (2S)-5,5,5-trifluoro-2-[(2S,3S)-2-[(S)-3-(4-hydroxyphenyl)-2-{[(2R)-oxolan-2-yl]formamido}propanamido]-3-methylpentanamido] pentoic acid] belongs 5.54; to `CC(C)(C)CC[C@H](NC(=O)[C@H](Cc1cccnc1)NC(=O)[C@H](Cc1ccc(O)cc1)NC(=O)[C@@H]1CCCN1)C(=O)O` [Example 6, (S)-2-((S)-2-((S)-3-(4-Hydroxyphenyl)-2-((S)-pyrrolidine-2-carboxamido)propan amido)-3-(pyridin-3-yl)propanamido)-5,5-dimethylhexanoic acid] (HELM PEPTIDE1{P.Y.[O=C([C@H](Cc1cccnc1)N[*:1])[*:2]].[CC(C)(C)CC[C@H](N[*:1])C(=O)O]}$$$$V2.0), 7.05.
As to `CC[C@H](C)[C@H](NC(=O)CNC(=O)[C@@H]1CCCN1)C(=O)N[C@@H](CCC(C)(C)C)C(=O)O` [Example 16, (2S)-5,5-Dimethyl-2-((3S)-3-methyl-2-(2-((S)-pyrrolidine-2-carboxamido)acetamido)pentanamido) hexanoic acid] (HELM PEPTIDE1{P.G.I.[CC(C)(C)CC[C@H](N[*:1])C(=O)O]}$$$$V2.0), the pIC50 was 7.10.
The value for `CC[C@H](C)[C@H](NC(=O)[C@H](Cc1ccc(O)cc1)NC(C)=O)C(=O)N[C@@H](CCC(C)(C)C)C(=O)O` [Example 28, (S)-2-((2S,3S)-2-((S)-2-Acetamido-3-(4-hydroxyphenyl)propanamido)-3-methylpentanamido)-5,5-dimethylhexanoic acid] was 6.72; that for `CC(C)(C)CC[C@H](NC(=O)[C@H](Cc1cscn1)NC(=O)[C@H](Cc1ccc(O)cc1)NC(=O)[C@@H]1CCCN1)C(=O)O` [Example 12, (S)-2-((S)-2-((S)-3-(4-Hydroxyphenyl)-2-((S)-pyrrolidine-2-carboxamido)propan amido)-3-(thiazol-4-yl)propanamido)-5,5-dimethylhexanoic acid] (HELM PEPTIDE1{P.Y.[O=C([C@H](Cc1cscn1)N[*:1])[*:2]].[CC(C)(C)CC[C@H](N[*:1])C(=O)O]}$$$$V2.0) was 7.15; that for `CC[C@H](C)[C@H](NC(=O)[C@H](Cc1ccc(O)cc1)NC(=O)[C@H]1CNCCO1)C(=O)N[C@@H](CCC(C)(C)C)C(=O)O` [Example 30, (S)-2-((2S,3S)-2-((S)-3-(4-Hydroxyphenyl)-2-((R)-morpholine-2-carboxamido)propan amido)-3-methylpentanamido)-5,5-dimethylhexanoic acid] was 7.05.
